Measured values as given in US7658706B2, “Vascular graft sterilization and decellularization” (RTI Biologics, Inc., priority 2005, dated 2010).

Key:
[1] = tested on: collagen; test: Collagen denaturation, quantitative enzyme digestion assay (matrix integrity); conditions: Triton 1.0%, Cholate 0.25%, 48° C., 24 hours, constant agitation (FIG. 11)
Experimental: One of the major structural components of the extracellular matrix that gives veins their strength is collagen. Damage to collagen can result in mechanical failures such as increased compliance or aneurism formation. It can also result in a cellular response due the exposure of the triple helix when stability is compromised. The amount of collagen denaturation was assessed to evaluate processing conditions with a quantitative enzyme digestion assay. […] Digested and undigested fractions are separated and hydrolyzed with concentrated hydrochloric acid (HCl) to release free amino acids from each fraction. Following neutralization of the acid in 1 N NaOH, levels of hydroxyproline (an amino acid present in high concentrations in collagen) are assessed in each fraction by a calorimetric method at a wavelength of 550 nm (Chloramine T binding, and reduction of the substrate DAB to a colored end product). The level of denatured collagen in a given sample is then expressed as a percent of the trypsin soluble fraction to the sum of both trypsin soluble and trypsin insoluble fractions.
Achieving the appropriate log reduction should not come at the expense of the integrity of the extracellular matrix. […] The effect of hydrogen peroxide at 6% at 40° C. and 50° C. on collagen was compared to PAA at 0.1% at the same specified temperatures.
Digested and undigested fractions are separated and hydrolyzed with concentrated hydrochloric acid (HCl) to release free amino acids from each fraction. Following neutralization of the acid in 1 N NaOH, levels of hydroxyproline (an amino acid present in high concentrations only in collagen) are assessed in each fraction by a calorimetric method (Chloramine T binding, and reduction of the substrate DAB to a colored end product). The level of denatured collagen in a given sample is then expressed as a percent of the trypsin soluble fraction to the sum of both trypsin soluble and trypsin insoluble fractions.

[2] = tested on: human saphenous vein; test: Histology (H&E) for cellularity and matrix (Example 1); conditions: 1.0% Cholate at 48° C.
Experimental: Samples of human saphenous veins 10 mm in length were placed in each of the test solution at 37° C. or 48° C. for both 6 and 24 hours while continuously shaking. Samples were then rinsed in PBS at room temperature for 10 minutes while continuously shaking. Following the rinse step, the samples were cut in half and either prepared for histology or immunohistochemistry.
Samples were placed in 10% buffered formalin immediately following the rinse step and remained there for at least 24 hours before further preparation. Then, the samples were embedded in paraffin and stained with hematoxylin and eosin (H&E) to determine cellularity.
The results of the immunohistochemical stain were compared to histology slides stained for cellularity (FIGS. 7 to 10). […] The extracellular matrix is preserved in each segment except with 1.0% Cholate at 48° C.

[3] = tested on: class I MHC antigens in human saphenous vein; test: Immunohistochemical stain for class I MHC antigens after decellularization (Example 1); conditions: high concentrations and high temperatures
Experimental: The effectiveness of cell and cellular debris removal was evaluated using two detergent and two enzyme solutions at various concentrations (Table 2). […] One treatment group combined Triton-X 100 with sodium deoxycholate. Trypsin alone at 0.05% (w/v) or 1.0% (w/v) and in combination with 0.02% (w/v) EDTA were the enzyme solutions used in the decellularization process.
Samples were then rinsed in PBS at room temperature for 10 minutes while continuously shaking. Following the rinse step, the samples were cut in half and either prepared for histology or immunohistochemistry.
Immunohistochemistry was used to determine the level of antigens remaining in the tissue after treatment. […] Samples were prepared in frozen blocks and sectioned with a cryostat. The sections were thawed and then rinsed for blocking and antibody staining. Sections were incubated for 30 minutes in primary antibody (mouse anti-HLA-ABC class I MHC) solution and then for anther 30 minutes in diluted biotinylated secondary antibody (Vector ABC Elite kit) solution. An enzyme substrate, NovaRed (Vector), was used to stain the antibodies red. The counter stain was hematoxylin providing a blue contrast.
A Zeiss Axiophot 2 microscope with a motorized Ludl scanning stage was used with tile field mapping at 5× to capture the entire image in one frame. Particle analysis was performed in Image J to determine the ratio of antigen staining (red) to the total tissue sample.
A blue and green filter was applied to only allow red to pass. Obvious areas of antigen staining were removed due to this variation in red hue. […] All samples were compared to their negatives for a percentage of red staining.
This procedure was applied to all images. […] The treatment groups are labeled according to the detergent or enzyme used followed by the processing conditions. For the Trypsin and Trypsin+EDTA groups, the concentrations ranged from 0.05% (L) to 1.0% (H), the processing temperatures were 37° C. (L), 48° C. (M) and 55° C. (H), and the processing times were 6 hrs (L), 17 hrs (M) and 24 hrs (H).

[4] = Biocompatibility of the detergent injected in a rat; type: in vivo, Sprague Dawley rats; conditions: 0.25%, 0.1%, 0.01%, 0.001% in four sites, 6 weeks after surgery
Experimental: Four implants from each group go into one rat for a total of 7 rats and 28 implant sites. An eighth rat is injected in four sites with decreasing concentrations of sodium deoxycholate (0.25%, 0.1%, 0.01%, 0.001%) to measure the biocompatibility of the detergent.

sodium deoxycholate
collagen degradation compared to untreated controls [1]: A significant degradative effect was not seen | extracellular matrix in histology [2]: large holes within the venous wall and separation between the fibers | removal of class I MHC staining [3]: approximately 100% | staining [3]: approximately 0% | response to injected detergent [4]: No response was noted
